Measured values: patent US20240139142A1, “METHOD FOR PREVENTING OR TREATING LIVER DISEASE” (priority 2022, published 2024)
pIC50: −log10 of the molar value. Where two headings read alike, the source gives them in different places. Blank lines part the entries; values can stand above or below the molecule they belong to.

Key:
[1] = system: liver hepatocellular carcinoma cell line SNU-449; experiment: MTS analysis, growth inhibition (GI50); format: cell-based; conditions: for GI50: Homo sapiens
[2] = system: cancer cells; conditions: background statement; cited from earlier work
[3] = system: liver hepatocellular carcinoma cell line Mahlavu; experiment: MTS analysis, growth inhibition (GI50); format: cell-based; conditions: read-out: GI50, Mahlavu liver hepatocellular carcinoma cell line
[4] = system: liver hepatocellular carcinoma cell line SNU-449; experiment: MTS assay cell growth, selectivity test; format: cell-based; conditions: SNU-449 vs THLE-2, MTS assay
[5] = system: Hepatitis B virus-induced ROS in Huh-7 cells; experiment: Removal of HBV-induced ROS, DHE fluorescence; format: cell-based, human; conditions: Huh-7 transfected with pGEM C12, 5 μM PCH1152, 10 μM NAC
Method: To examine the effect of PCH1152, NAC or the combination thereof on removing HBV-induced ROS, the Huh-7 cells were remained untreated, or treated with 5 μM PCH1152, 10 μM NAC or 5 μM PCH 1152 plus 10 μM NAC. The ROS was examined by DHE fluorescence, and the difference between each group was compared by Tukey's Multiple Comparison Test.

[6] = system: human normal liver cell line THLE-2; experiment: Western blot, apoptosis and ABCC2/Mcl-1/Twist expression; format: cell-based; conditions: low concentration
[7] = system: mouse xenograft model of liver hepatocellular carcinoma; experiment: Safety test, median lethal dose (LD50), intravenous injection; format: in vivo
Method: (§1) The mouse xenograft model of liver hepatocellular carcinoma was administered with different concentrations of PCH1152 or P1130 via intravenous injection, and the median lethal dose (LD50) was calculated by the number of death and dosage.

[8] = as above; format: in vivo; conditions: in vivo, mouse
Method: as §1

[9] = system: SNU-449 liver hepatocellular carcinoma cell line; experiment: Western blot of apoptosis markers (cleaved caspase 8, cleaved PARP); format: cell-based; conditions: 0.3 μM, 0, 24, 48 and 72 hours
Method: SNU-449 liver hepatocellular carcinoma cell line was treated by 0.3 μM isothiocyanate structural modified compounds P1130 and PCH1152, and natural isothiocyanate compound PEITC, and the control group was treated by DSMO. After extracting the proteins in the cells at different time points, such as 0, 24, 48 and 72 hours, analysis and comparison were performed by using western blot. […] The results represent that the two structural modified compounds described above effectively promoted the apoptosis of the liver hepatocellular carcinoma cells (FIG. 1).

[10] = system: Mahlavu liver hepatocellular carcinoma cell line; experiment: Expression of ABCC2, Twist and Mcl-1 after treatment; format: cell-based; conditions: 2.5 μM, 64 hours
Description: (§2) The process of trans-differentiating epithelial cells into motile mesenchymal cells is called epithelial-mesenchymal transition (EMT). EMT is indispensable in development, wound healing and stem cell behavior, and may induce fibrosis and carcinogenesis pathologically. In addition, EMT plays an important role in liver fibrosis, liver cirrhosis and liver hepatocellular carcinoma. […] Moreover, EMT may increase the anti-apoptosis effect, which will result in the development of drug resistance in cancer treatment, and induce the development of stemness of the cancer cells, as well as increase the number of cancer stem cells. The cancer stem cell is one of the important factors in the progression, recurrence, metastasis and drug resistance of the cancer. There is an evidence that in the samples of the liver hepatocellular carcinoma patients with poor prognosis, the overexpressions of Twist and Snail were observed. […] The results above represent that isothiocyanate structural modified compound of the present disclosure may prevent liver carcinogenesis and the growth, invasion, metastasis, progression and recurrence of liver hepatocellular carcinoma via inhibiting epithelial-mesenchymal transition, anti-apoptosis and/or inhibiting drug resistance.

[11] = system: SNU-449 liver hepatocellular carcinoma cell line; experiment: as above; format: cell-based; conditions: 2.5 μM, 64 hours
Description: as §2

[12] = system: SNU-449 liver hepatocellular carcinoma cell line; experiment: Western blot, apoptosis and ABCC2/Mcl-1/Twist expression; format: cell-based; conditions: low concentration
[13] = system: liver hepatocellular carcinoma cell line with Nexavar drug resistance; experiment: Protein expression and apoptosis in drug-resistant cell line; format: cell-based
Description: WT: wild-type liver hepatocellular carcinoma cell line. R: Nexavar-drug resistance-liver hepatocellular carcinoma cell line.
After treating liver hepatocellular carcinoma cell line with Nexavar drug resistance by PCH1130 or PCH1152, the expressions of molecules such as USP22, ABCC1, ABCC2 and Twist in liver hepatocellular carcinoma may be decreased, and the expressions of cleaved Caspase-8 and PARP may be increased, which induced the apoptosis of liver hepatocellular carcinoma cells.

[14] = system: Sorafenib-drug resistance-liver hepatocellular carcinoma cell line SNU-499; experiment: MTS assay cell viability IC50; format: cell-based
Method: (§3) In order to look for the biomarkers of drug resistance for liver hepatocellular carcinoma, liver hepatocellular carcinoma cell line Hep3B and SNU-449 were continually cultured in an environment with Sorafenib, and the concentration of Sorafenib was increased gradually. Specifically, broth containing 3.5 μM to 10.8 μM Sorafenib was used as a starting concentration (compared to the IC50 of the cell), and the concentration increased 0.5 μM every week until the Sorafenib-drug resistance-liver hepatocellular carcinoma cell line was established. […] With the same experimental procedures as described above, the Sorafenib-drug resistance-cell line was also cultured in a cell broth containing Regorafenib, and the cell viability was tested by MTS assay.

[15] = system: Sorafenib-drug resistance-liver hepatocellular carcinoma cell line Hep3B; experiment: MTS assay cell viability IC50; format: cell-based; conditions: Homo sapiens
Method: as §3

[16] = system: wild-type liver hepatocellular carcinoma cell line Hep3B; experiment: MTS assay cell viability IC50; format: cell-based; conditions: Homo sapiens
Method: as §3

[17] = system: wild-type liver hepatocellular carcinoma cell line SNU-499; experiment: MTS assay cell viability IC50; format: cell-based
[18] = SNU-449, MTS analysis, read-out: GI50, SNU-449 liver hepatocellular carcinoma cell line
[19] = read-out: The IC50 of Regorafenib, wild-type liver hepatocellular carcinoma cell line
[20] = read-out: The IC50 of Sorafenib, wild-type liver hepatocellular carcinoma cell line

SMILES: S=C=NCc1ccccc1 [BITC, benzyl isothiocyanate]
GI50 [1, 18]: 9.58 µM | dose needed to have the inhibiting effect on cancer cells [2]: ~10 mM | GI50 ([3]; MTS analysis): 3.84 µM

SMILES: COc1cccc2c1C(=O)c1c(O)c3c(c(O)c1C2=O)C[C@@](O)(C(=O)CO)C[C@@H]3O[C@H]1C[C@H](N)[C@H](O)[C@H](C)O1 [Doxorubicin, reference compound]
selectivity between liver hepatocellular carcinoma cell and normal liver cell [4]: did not have selectivity

SMILES: CC(=O)N[C@@H](CS)C(=O)O [NAC, N-acetylcysteine, reference compound]
HBV-induced ROS increasement [5]: significantly reduce

SMILES: COc1ccc(CCN=C=S)cc1 [P1130]
GI50 ([1]; SNU-449, read-out: GI50, SNU-449 liver hepatocellular carcinoma cell line): 0.64 µM | increase of the ability of inhibiting the growth of the liver hepatocellular carcinoma cell line ([1]; compared to natural isothiocyanate compounds BITC or PEITC): 12 times | apoptosis promotion and inhibition of ABCC2, Mcl-1, Twist in human normal liver cell line [6]: no such effect | toxicity relative to existing anticancer drug, e.g. Taxotere [7]: comparable | LD50 [8]: 100 to 300 mg/kg | expression levels of cleaved caspase 8 and cleaved PARP [9]: significantly increased | expressions of ABCC2, Twist and Mcl-1 [10]: inhibition | expressions of ABCC2, Twist and Mcl-1 [11]: inhibition | apoptosis of liver hepatocellular carcinoma cell line [12]: promote apoptosis | expressions of ABCC2, Mcl-1 and Twist [12]: inhibit the expressions | GI50 [3]: 1.52 µM | effect on drug resistance in liver hepatocellular carcinoma [13]: reversing the drug resistance | expressions of USP22, ABCC1, ABCC2 and Twist [13]: decreased | expressions of cleaved Caspase-8 and PARP [13]: increased

SMILES: S=C=NCCc1ccccc1 [PEITC, phenylethyl isothiocyanate, reference compound]
GI50 [1, 18]: 7.58 µM | expression levels of cleaved caspase 8 and cleaved PARP [9]: only slightly increased | GI50 ([3]; MTS analysis): 9.59 µM

pIC50 ([14]; SNU-499, Sorafenib-resistant, read-out: The IC50 of Regorafenib, drug resistance-liver hepatocellular carcinoma cell line): 4.84 | pIC50 ([15]; Sorafenib-resistant, read-out: The IC50 of Regorafenib, drug resistance-liver hepatocellular carcinoma cell line): 5.08 | pIC50 [16, 19]: 5.37 | GI50 [1, 18]: 4.54 µM | pIC50 [17, 19]: 5.44 | GI50 ([3]; MTS analysis): 5 µM
SMILES: CNC(=O)c1cc(Oc2ccc(NC(=O)Nc3ccc(Cl)c(C(F)(F)F)c3)c(F)c2)ccn1 [Regorafenib]

pIC50 ([14]; SNU-499, read-out: The IC50 of Sorafenib, drug resistance-liver hepatocellular carcinoma cell line): 4.85 | pIC50 ([15]; read-out: The IC50 of Sorafenib, drug resistance-liver hepatocellular carcinoma cell line): 4.96 | pIC50 [16, 20]: 5.42 | GI50 [1, 18]: 2.34 µM | pIC50 [17, 20]: 5.10 | GI50 ([3]; MTS analysis): 3.58 µM
SMILES: CNC(=O)c1cc(Oc2ccc(NC(=O)Nc3ccc(Cl)c(C(F)(F)F)c3)cc2)ccn1 [Sorafenib]
